Read-outs that look alike come from different tables or passages of the source.
How the values were obtained:
pCMX-Gal-mPPARγ-LBD = biological target: T1, pCMX-Gal-mPPARγ-LBD (Mus musculus, UniProt P37238); experiment: Gal4 chimeric receptor luciferase reporter (Method 2); format: cell-based; conditions: SHEP-1 cells, 3 μM, 5 μM, 10 μM and 20 μM
T1 construct: expressed in transfected cells; host or cells: SHEP-1 cells
T1 sequence (P37238 238-503 limits assumed): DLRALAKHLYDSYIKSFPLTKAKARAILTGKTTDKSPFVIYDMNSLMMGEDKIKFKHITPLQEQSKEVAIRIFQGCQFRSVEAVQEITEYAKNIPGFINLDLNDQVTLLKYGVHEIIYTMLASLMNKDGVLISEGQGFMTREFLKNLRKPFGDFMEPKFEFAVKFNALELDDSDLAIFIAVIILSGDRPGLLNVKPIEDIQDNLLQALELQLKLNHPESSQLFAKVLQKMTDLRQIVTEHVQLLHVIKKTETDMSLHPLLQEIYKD
Source text: In Method 2, SHEP-1 cancer cells were transfected with a reporter gene containing four copies of a Gal4 binding site (pMH100x4-TK-Luc) and chimeric receptors of a single PPAR isoform (pCMX-Gal-mPPARα-LBD, pCMX-Gal-mPPARδ-LBD, or pCMX-Gal-mPPARγ-LBD, respectively) as previously described in Kim et al, Toxicological Sciences, 85, (2005), pp. 585-593. When C19H24N3O5S5Pr binds to the ligand binding domain (LBD) of the chimeric receptor, the DNA binding domain of Gal4 binds to co-transfected Gal4 binding site and initiates transcription of the firefly luciferase.

[1] = system: AIF (apoptosis inducing factor); conditions: SHEP-1 cells, 5 μM and 10 μM, 24 hr
Method: Different concentrations (5 μM and 10 μM) of C19H24N3O5S5Pr (indicated as “Pr-MPO”) were administered into SHEP-1 cancer cells. The detection of AIF in the cytosol and nucleus fractions was determined by Western Blot analysis at 18 hr and 24 hr of treatment with C19H24N3O5S5Pr.

[2] = system: SHEP-1 and MDA-MB-231 cancer cells; experiment: Morphological changes of cancer cells; format: cell-based; conditions: SHEP-1 5 μM, MDA-MB-231 10 μM, compound alone
[3] = system: HCT-116 colorectal tumor cells
Method: HCT-116 colorectal tumor cells were grafted subcutaneously onto nude mice. Tumor-bearing mice were then treated with solvent control (water) or different concentrations of (100 μg, 200 μg) C19H24N3O5S5Pr on day 1, day 5, day 9, day 12, and day 15. Tumor volumes (mm^3) were measured on day 1, day 5, day 8, day 9, day 12, day 14 and day 16. Tumor volumes in treated mice were compared with those of control mice.

PARP = conditions: SHEP-1 cells, 5 μM and 10 μM, 24 hrs
Bax, cytochrome C = conditions: 5 μM and 10 μM
caspases = conditions: cancer cells
PPARγ = biological target: T2, PPARγ (Homo sapiens, UniProt P37231); format: cell-based; design: endogenous in cells; host or cells: SHSY5Y, SHEP1 / SHEP-1 (neuroblastoma); conditions: 18 hours
T2 sequence (P37231 1-505): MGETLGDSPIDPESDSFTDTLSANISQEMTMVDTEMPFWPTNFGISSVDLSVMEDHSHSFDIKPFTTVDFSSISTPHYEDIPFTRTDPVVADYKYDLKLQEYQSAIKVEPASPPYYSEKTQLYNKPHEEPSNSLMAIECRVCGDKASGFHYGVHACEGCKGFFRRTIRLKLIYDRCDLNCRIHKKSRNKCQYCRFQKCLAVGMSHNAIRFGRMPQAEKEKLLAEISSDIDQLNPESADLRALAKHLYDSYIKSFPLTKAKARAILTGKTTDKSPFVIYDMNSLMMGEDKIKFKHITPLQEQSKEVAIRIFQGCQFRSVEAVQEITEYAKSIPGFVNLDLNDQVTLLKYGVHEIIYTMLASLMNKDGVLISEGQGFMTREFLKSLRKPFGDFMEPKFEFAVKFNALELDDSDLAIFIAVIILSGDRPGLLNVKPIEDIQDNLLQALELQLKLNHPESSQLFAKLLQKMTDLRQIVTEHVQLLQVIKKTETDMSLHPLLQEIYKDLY
Method: To determine if C19H24N3O5S5Pr activates PPARγ, SHSY5Y and SHEP1 neuroblastoma cells were transiently co-transfected with a 3×PPRE luciferase plasmid and renilla plasmid for transfection efficiency. Forty eight hours following transfection, the cells were exposed to increased concentrations (0 to 10 μM) of 15d-PGJ2 and C19H24N3O5S5Pr for 18 hours. The fold increase in luciferase activity correlates with the PPARγ activity of the cell. PPARγ activity is determined by calculating the RLU/renilla/μg total protein.
To assess if C19H24N3O5S5Pr activation of PPARγ is dependent on expression of PPARγ neuroblastoma cells, neuroblastoma cells SHEP1 and SHSY5Y were transiently co-transfected with a 3×PPRE luciferase plasmid and renilla plasmid for transfection efficiency. Forty eight hours following transfection, cells were exposed to increased concentrations (0 to 20 μM) of C19H24N3O5S5Pr for 18 hours. PPARγ activity was calculated as luciferase RLU/renilla/μg total protein.

## CS(C)=O.CS(C)=O.[O-][n+]1ccccc1[S-].[O-][n+]1ccccc1[S-].[O-][n+]1ccccc1[S-].[Pr+3] [C19H24N3O5S5Pr, praseodymium (2-mercaptopyridine N-oxide)(dimethylsulfoxide)]
pCMX-Gal-mPPARγ-LBD
  luciferase activity, PPARγ LBD chimeric receptor: induction of luciferase activity
[1]
  AIF translocation: AIF was translocated into the nucleus
[2]
  cell morphology: rounded up and also lower in cell density
[3]; 100 μg or 200 μg on day 1, 5, 9, 12 and 15, measured to day 16
  tumor size compared to control mice: did not show a substantial increase in tumor size
[3]; 200 μg
  tumor growth suppression/inhibition versus control mice: at least 3 fold
[3]; dosage increased from 100 μg to 200 μg
  tumor activity suppressed/inhibited, 200 μg versus 100 μg: at least 2 fold
PARP
  PARP cleavage (80 kDa fragment): PARP cleavage
Bax, cytochrome C; SHEP-1 cells, 18 hr and 24 hr
  Bax translocation: causes Bax translocation to the mitochondrial fraction
  cytochrome C release: cytochrome C release into the cytosol
Bax, cytochrome C; SHSY5Y cells, 24 hr
  Bax translocation: causes Bax translocation to the mitochondrial fraction
  cytochrome C release: cytochrome C release into the cytosol
caspases
  caspase activation: does not activate caspases
PPARγ; 0 to 20 μM
  PPARγ activation, SHEP1 versus SHSY5Y cells: activates PPARγ better in SHEP1 cells, than in SHSY5Y cells
PPARγ; SHSY5Y and SHEP1 cells in 10% serum, 0 to 10 μM
  PPARγ activation (luciferase RLU/renilla/μg total protein): significant activation of PPARγ

Source: patent US8691851B2, “Lanthanide metal complexes useful in treating cancer” (National University of Singapore, priority 2009, dated 2014)
